Test results from paper doi:10.1101/2024.09.10.612317v1 (bioRxiv, 2024).

Columns and labels:
BMDCs = assay: Cytokine, chemokine and growth factor production by BMDCs; type: cell-based, mouse; conditions: coacervates 10 μM, 24 h, multiplex assays; LPS positive control
[1] = Turbidity and optical microscopy of LLPS; type: physicochemical; conditions: 0.1 M phosphate buffer pH 7.4, 1M NaCl
[2] = test system: BMDCs overlaid with BB7 hybridoma cells; assay: Antigen presentation assay with Ag85B and BB7 hybridoma; type: cell-based, mouse; conditions: Ag85B ∼0.5 μM, BMDCs to BB7 cells 1:7

| coacervates at 1M NaCl (optical micrographs) [1] | Substance | induction of cytokines, chemokines and growth factors in BMDCs (BMDCs) | antigen presentation of Ag85B (IL-2) [2] |
| --- | --- | --- | --- |
| presence of coacervates | (GHGLY)4 [GL 20] | immunologically inert | enhanced antigen presentation of Ag85B |
| presence of coacervates | (GHGVY)4 [GV 20] | immunologically inert | enhanced antigen presentation of Ag85B |
